Assay results taken from a melting point compilation (Tetko et al.; mined from patent text by program, amines drawn as free bases though some values may be those of a salt).

melting point [°C] | Structure (SMILES)
66 to 67 | CCCCCCCCCCCCCCOc1cccc(C(=O)N(Cc2ccccn2)C(C)=O)c1
91 to 97 | CCOC(=O)CNc1nc2ccccc2s1
222 to 226 | Cc1cc(=O)c(C(=O)Nc2ccccc2)c(-c2ccccc2)o1
202 to 205 | Cc1ccc2c(Cl)ccnc2c1NC(=O)c1c(Cl)cccc1Cl
260 to 262 | CCNc1cc(NS(=O)(=O)c2ccc(N)cc2)nc(N2CCC2)n1
99 to 102 | Cc1ncnc(-c2ccncc2)n1
129 to 130 | CCCc1nn(-c2ccc(C(F)(F)F)cn2)cc1COc1ccc(CCC(=O)O)c(C)c1
118 to 119 | Oc1c(Br)cc(-c2cccc3sc4c(Br)cccc4c23)cc1Br
210 to 212 | CN1CCC(Sc2cc3c(cc2Cl)[nH]c(=O)n3C)CC1
122 to 123 | CC(C)[Si](C)(C)CCSCCCNC(=O)n1cc(F)c(=O)[nH]c1=O
170 to 175 | O=CNC(C(=O)O)c1ccccc1 (stereo not given)
228 to 229 | CCOC(=O)CNC(=O)c1n[nH]cc1NC(=O)c1cccc(C)n1
195 to 196 | Cc1nnc(-c2ccc3occ(-c4ccc(C(=O)N5CCCC5)c(F)c4)c3c2)o1
158 to 162 | COc1ccccc1[C@H](c1cccc2ccccc12)[C@@](C)(C#N)C(=O)N1CCN(c2cccc(C(F)(F)F)c2)CC1
206 | N#Cc1c(N2CCN(C(=O)c3ccco3)CC2)c2cccnc2n(Cc2ccccc2)c1=O
101 to 103 | CCNC(=O)c1c(Cl)cc(Cl)cc1[Si](C)(C)C
190 to 192 | CC1(C)COc2cc3c(cc21)C1(CO3)C(=O)N(C(c2ccccc2)c2ccccc2)c2ccccc21 (stereo not given)
179 to 180 | CCN(CC)C(=O)COC(=O)CCc1cc(S(C)(=O)=O)cc(-c2nc(=O)c3ccc(Cl)cc3s2)n1
162 to 163 | O=C(c1ccccc1)N1CC(=O)N2CCc3ccccc3C2C1 (stereo not given)
197 to 198 | O=[N+]([O-])c1ccc(S(=O)(=O)Nc2ccc(O)cc2)cc1
266 to 268 | CCOC(=O)c1nnc2c3ccc(Cl)cc3c(-c3ccccc3)nn12
87 to 88 | CC(C=O)Oc1ccc(Cl)cc1Cl (stereo not given)
144 to 146 | N=C(NS(=O)(=O)C=Cc1ccc(Cl)c(Cl)c1)c1ccccc1
88 to 92 | CCCC(CO)(CCC)N(OC(C)c1ccccc1)C(C)(C)CO (stereo not given)
> 300 | O=c1[nH]c2cc(Cl)c(Cl)c(-c3ccncc3)c2[nH]c1=O

melting point [°C] | Structure (SMILES)
192 | Cc1cccc(C(=O)Nc2ccc(N3CCN(Cc4cccc(C#N)c4)CC3)cc2)c1-c1ccc(C(F)(F)F)cc1
158 | CC(=O)c1c[nH]c(-c2ccccc2)n1
105 to 108 | COc1ccc2[nH]cc([C@H]3CC[C@@H](N4CCN(c5cccc6[nH]ccc56)CC4)CC3)c2c1
49 to 50 | COC(=O)[C@@H]1C(=O)CC[C@H]1C(=O)OC (relative stereo)
229 to 231 | CS(=O)(=O)c1ccc(-c2[nH]c(I)cc2-c2ccc(F)cc2)cc1
32 to 34 | Cc1c(N)noc1C(F)(F)C(F)(F)F
142 to 143 | COc1ccc(-c2cc(=O)n(Cc3c(Cl)cc(Cl)cc3Cl)nc2-c2ccc(OC)cc2)cc1
176 to 178 | O=C1CCCc2sc(CCN3CCC(c4coc5cc(F)ccc45)CC3)cc2N1
250 to 252 | C=CCNc1nc(C)c(C(=O)c2ccc(N)c([N+](=O)[O-])c2)s1
182 to 183 | CCCCc1cn(CCC2CC2)c(=O)n1Cc1ccc(-c2ccccc2-c2nnn[nH]2)nc1
115 to 120 | Cc1cc([N+](=O)[O-])c(Cl)c([N+](=O)[O-])c1CBr
145 to 146 | COC(=O)c1cccc2c1Oc1c(cccc1C(=O)OC)N2
241 to 246 | O=C(O)c1cc(=O)cc(-c2ccccc2Cl)o1
136 to 138 | Cc1cccc(NC(c2ccc(C(F)(F)F)cc2)c2ccc3cccnc3c2O)n1 (stereo not given)
229 to 230 | COC(=O)c1cccc(C2C(C#N)=C(N)Oc3c2ccc2cnccc32)c1 (stereo not given)
166 to 167 | Cc1sc2ncc(CO)n2c1C
122 to 124 | COC(=O)c1[nH]c(=O)n(C(=O)NCCCN2CCN(c3ccccc3OC)CC2)c1-c1ccc(F)c(F)c1
104 | COc1ccc(C(=O)COc2ccccc2Br)cc1
210 | Cc1c(C#N)[nH]n(-c2ccc(Cl)c(Cl)c2)c1=O
261 to 264 | COCOc1ccc(Cc2cccc(-c3c(O)c4ccc(Cl)cc4[nH]c3=O)c2)cc1
204 to 207 | CCNC(=O)Nc1nccc(-c2ccncc2)n1
162 to 164 | CCC#CC(C)(C)NC(=O)C(CC)Oc1cncc(C(=O)O)c1 (stereo not given)
147 to 148 | CC(C)(C)C1=CC(=S)N=N1
217 to 218 | Nc1nc(NCCc2ccccc2)nc(-c2cc(Cl)ccc2Cl)n1
211 to 212 | NC(=O)CC[C@H](Nc1ccc(O)cc1)C(=O)O

melting point [°C] | Structure (SMILES)
78.5 to 80 | CC(C)(SCC(=O)O)c1ccc2c(c1)OCO2
141 | CCCCOc1cc(/C=C(\OCC)C(=O)O)ccc1OCCc1ccc(NS(C)(=O)=O)cc1
210 to 212 | Nc1cc(O)c(Cn2nc(-c3ccc(C(F)(F)F)cc3)oc2=O)cc1Cl
184 to 186 | COC(=O)[C@H](Cc1ccc(NC(=O)c2c(Cl)cccc2Cl)cc1)NC(=S)C1(CCCSC)CCC1
250 to 251 | Cn1ncc(C(=O)N2CCCC2)c1C(=O)Nc1cc2nc(-c3ccccc3)nn2cc1F
142 | COc1cc(CC(=O)O)n(C)c1C(=O)c1ccc(Cl)cc1
162 to 164 | C#CCN1C(=O)C(=O)N(c2cc(Cl)ccc2C)C1=S
125 to 129 | O[C@H]1CN(Cc2ccccc2)CC[C@@H]1c1ccc(Br)cc1 (racemic)
194 to 196 | COc1ccc(CNc2nc(OCc3ccccn3)ncc2C(=O)c2cc(OC)c(OC)c(OC)c2)cc1NC(C)=O
211 to 213 | NC(=O)c1nnn(Cc2ccccc2Br)c1N
283 to 286 | CCn1nc2c(N)nc3ncccc3c2c1CC(C)(C)O
95 to 97 | Nc1c(C(=O)c2cccnc2N2CCOCC2)oc2ccc(Cl)cc12
214 to 216 | O=C(O)C(Cl)C1c2c(Cl)c(Cl)c(Cl)c(Cl)c2C(Cl)(Cl)C1(Cl)Cl (stereo not given)
144 to 146 | Cc1c(-c2ccccc2)c(C2=CC(N(C)C)CC2)c2oc(C3CC3)nc2c1C#N (stereo not given)
90 to 91 | CCOC(=O)c1cc2cc(OCCOC)cc([N+](=O)[O-])c2[nH]1
104 to 105 | NC(=S)CCCc1ccc(Br)cc1
116 | O=C(NCCc1cncn1Cc1ccc(Cl)cc1)[C@H]1CN(Cc2ccccc2)CCN1C(=O)NC1CCCCC1
158 to 160 | O=S(=O)(c1nc(-c2ccc(Cl)c(Cl)c2)c(-c2cccs2)[nH]1)C(F)(F)C(F)F
111 to 114 | CC1(C)Oc2ccc(C#N)cc2[C@@H](OC2=CC(=O)OC2)[C@@H]1O (relative stereo)
124 to 126 | CS(=O)(=O)c1ccc(C(CC2CCCC2)C(=O)Nc2nccs2)cc1NO (stereo not given)
185 to 187 | C=C1C(O)C(CO)OC1n1cc(F)c(N)nc1=O (stereo not given)
280 | Cc1ccc(N2C(=O)C(O)=C(C(=O)c3ccc(C(C)C)cc3)C2c2ccc(Oc3ccccn3)cc2)nn1 (stereo not given)
> 200 | CCc1nc(C)c(/C=C(\NC(=O)c2ccc(C(=O)NCc3cccc(O)c3)cc2Cl)C(=O)OC)s1
65 to 66 | CC(C)OC(=O)CCC(=O)c1ccc(-c2ccccc2F)cc1
238 to 240 | COc1cc(Br)nc(NC(=O)NS(=O)(=O)c2cccc3c2SCC3)n1

melting point [°C] | Structure (SMILES)
220 | CCCCc1nn(Cc2ccc(C(=O)O)cc2)c2ccccc2c1=O
145 | O=S(=O)(c1ccc(Br)cc1)N1CCC1
127 to 128 | CCc1nc2c(C)cc(C)nc2n1Cc1ccc(C(Cc2ccccc2)C(C(=O)O)C(=O)O)cc1 (stereo not given)
220 to 222 | CNc1nc(Cl)nc2c1ncn2C1SC(CO)C(O)C1O (stereo not given)
107 to 109 | COC(=O)c1cc(C)sc1NC(=O)Cc1ccccc1
222 to 223 | Cc1oc2cc(O)cc(O)c2c(=O)c1-c1ccc(F)cc1
249 to 251 | N#Cc1ncn2c1[C@@H]1CCCN1C(=O)c1sccc1-2
97 to 100 | CC(=O)OCc1[nH]c(C(=O)OCc2ccccc2)c(C)c1C(C)=O
> 300 | Cc1nc(Nc2nc3ccc([N+](=O)[O-])cc3[nH]2)nc(O)c1CC(=O)O
223 to 225 | COc1cn(-c2ccc(-c3ncco3)cc2F)nc(-c2ccnn2-c2ccccc2)c1=O
224 to 226 | Cn1cc2c3c(c(Cl)cc2n1)CCC3=CC#N
180 to 181 | CC(C)(C)c1ccc(C(NC(=O)c2c(F)cccc2Cl)N2CCOCC2)cc1 (stereo not given)
70 to 73 | COc1cccc(C(N)c2sccc2S(=O)(=O)Nc2onc(C)c2Br)c1 (stereo not given)
70 | CCc1c(CO)[nH]c(=O)c(I)c1Oc1cc(C)cc(C)c1
119 | CC(C)S(=O)(=O)c1cnc2c(c1)nc(CC(C)(C)C)n2CCN(C)C
106 to 109 | COc1ccc(S(=O)(=O)N(C)C)c(S(N)(=O)=O)c1
162 to 165 | CCOC(=O)C1=Cc2cc(C(F)(F)C(F)(F)F)ccc2OC1C(F)(F)F (stereo not given)
191 to 193 | Cc1c(C)c2c(c(Br)c1N)C(c1ccc(C(C)C)cc1)CO2 (stereo not given)
153 to 154 | N#CC1C=Cc2ccccc2N1C(=O)c1ccccc1 (stereo not given)
297 to 299 | Cn1cnc2nc(-c3ccc(-c4ccccc4)cc3)nn2c1=S
136 to 137 | CCOc1nn(Cc2ccc(OC)c(OCc3nc(-c4ccccc4)oc3C)c2)cc1CCC(=O)O
127 to 128 | CON=C1CCC1N1CCC(Cc2ccc(Cl)cc2)CC1 (stereo not given)

Structure (SMILES) | melting point [°C]
Cc1cccc2c(C(=O)C(=O)NC3=CC(=O)OC3)c(C)n(Cc3ccc(Cl)cc3)c12 | 283 to 285
CN1CCc2cc(O)c(O)c(Sc3ccc([N+](=O)[O-])cc3)c2CC1 | 125 to 127
CC1=C(C(=O)OCCCO[N+](=O)[O-])C(c2cccc([N+](=O)[O-])c2)C(C(=O)OCCCO[N+](=O)[O-])=C(N)N1 (stereo not given) | 145 to 146
